Columns and labels:
Sirt2 [1] = details: cited from earlier work
Sirt1 [2] = details: cited from earlier work
Sirt2 [3] = biological target: T1, Sirt2 (Homo sapiens, UniProt Q8IXJ6); assay: Fluor-de-Lys peptide deacetylation assay, Sirt2; type: biochemical
T1 sequence (Q8IXJ6 34-356): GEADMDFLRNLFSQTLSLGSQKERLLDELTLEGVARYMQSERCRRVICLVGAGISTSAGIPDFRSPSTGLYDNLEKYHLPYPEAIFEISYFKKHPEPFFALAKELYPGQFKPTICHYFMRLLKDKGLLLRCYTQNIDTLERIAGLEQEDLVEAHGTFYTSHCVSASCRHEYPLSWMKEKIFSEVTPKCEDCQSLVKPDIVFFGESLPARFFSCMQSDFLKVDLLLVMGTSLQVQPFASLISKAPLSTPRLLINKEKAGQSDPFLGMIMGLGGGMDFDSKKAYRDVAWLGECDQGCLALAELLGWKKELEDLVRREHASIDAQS
Summary of the method: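 Full-length human Sirt2 (E. coli-expressed, purified, His-tag removed) incubated 30 min at 37 °C with 0.1 mM FdL-2 peptide (QPK(acetyl-K)), 0.5 mM NAD+ and compound at 100 μM final in kit buffer. Values corrected with compound-only (no Sirtuin) controls; screen in duplicate, dose-response in triplicate.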

Sirt3 = biological target: T2, Sirt3 (Homo sapiens, UniProt Q9NTG7); assay: Fluor-de-Lys peptide deacetylation assay, Sirt3; type: biochemical; details: 100 μM compound; 0.1 mM FdL-2 peptide, 0.5 mM NAD+
T2 construct: Sirt3 residues 114-399; His-tag with linker comprising a TEV protease cleavage site (N); made in house; host or cells: E. coli
T2 sequence (Q9NTG7 114-399): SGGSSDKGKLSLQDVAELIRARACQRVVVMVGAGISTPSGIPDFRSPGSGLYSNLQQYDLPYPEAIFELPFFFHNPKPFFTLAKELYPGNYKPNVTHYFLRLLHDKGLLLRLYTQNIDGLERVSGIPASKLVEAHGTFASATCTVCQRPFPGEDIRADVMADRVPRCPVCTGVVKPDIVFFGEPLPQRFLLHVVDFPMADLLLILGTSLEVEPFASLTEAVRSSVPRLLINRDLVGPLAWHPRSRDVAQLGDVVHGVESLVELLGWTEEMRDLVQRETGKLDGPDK
Summary of the method: (§1)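 E. coli-expressed human Sirtuins with 0.5 mM NAD+ and 0.1 mM Fluor-de-Lys peptide: FdL-2 (QPK(acetyl-K)) for Sirt3, FdL-1 (RHK(acetyl-K)) for Sirt5. Compounds at 100 μM final; 30 min at 37 °C, then trypsin developer for 45 min at room temperature.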

Sirt5 [4] = biological target: T3, Sirt5 (Homo sapiens, UniProt Q9NXA8); assay: Fluor-de-Lys peptide deacetylation assay, Sirt5; type: biochemical; details: 100 μM compound; 0.1 mM FdL-1 peptide, 0.5 mM NAD+
T3 construct: Sirt5 residues 34-302; His-tag with linker comprising a TEV protease cleavage site (N); made in house
T3 sequence (Q9NXA8 34-302): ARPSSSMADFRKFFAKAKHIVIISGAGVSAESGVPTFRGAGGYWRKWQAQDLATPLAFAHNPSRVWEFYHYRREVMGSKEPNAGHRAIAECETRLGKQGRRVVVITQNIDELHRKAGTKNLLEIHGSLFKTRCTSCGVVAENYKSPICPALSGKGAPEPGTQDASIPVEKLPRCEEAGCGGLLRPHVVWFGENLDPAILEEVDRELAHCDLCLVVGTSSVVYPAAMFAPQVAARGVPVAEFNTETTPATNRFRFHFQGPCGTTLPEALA
Summary of the method: as §1

Sirt6 = biological target: T4, Sirt6 (Homo sapiens, UniProt Q8N6T7); assay: Fluor-de-Lys peptide deacetylation assay, Sirt6; type: biochemical; details: 100 μM compound; 0.1 mM FdL-1 peptide, 0.5 mM NAD+
T4 construct: Sirt6 residues 13-308; His-tag with linker comprising a TEV protease cleavage site (N, cleaved yes); made in house; host or cells: E. coli Rosetta2
Summary of the method: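 Fluor-de-Lys kit run with FdL-1 peptide RHK(acetyl-K), 0.1 mM, plus 0.5 mM NAD+. Compounds at 100 μM final, 30 min at 37 °C, then trypsin developer for 45 min at room temperature.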

Sirt1 [5] = biological target: T5, Sirt1 (Homo sapiens, UniProt Q96EB6); assay: in vitro activity of Sirt1; type: biochemical; details: concentration of 100 μM
T5 sequence (Q96EB6 1-747): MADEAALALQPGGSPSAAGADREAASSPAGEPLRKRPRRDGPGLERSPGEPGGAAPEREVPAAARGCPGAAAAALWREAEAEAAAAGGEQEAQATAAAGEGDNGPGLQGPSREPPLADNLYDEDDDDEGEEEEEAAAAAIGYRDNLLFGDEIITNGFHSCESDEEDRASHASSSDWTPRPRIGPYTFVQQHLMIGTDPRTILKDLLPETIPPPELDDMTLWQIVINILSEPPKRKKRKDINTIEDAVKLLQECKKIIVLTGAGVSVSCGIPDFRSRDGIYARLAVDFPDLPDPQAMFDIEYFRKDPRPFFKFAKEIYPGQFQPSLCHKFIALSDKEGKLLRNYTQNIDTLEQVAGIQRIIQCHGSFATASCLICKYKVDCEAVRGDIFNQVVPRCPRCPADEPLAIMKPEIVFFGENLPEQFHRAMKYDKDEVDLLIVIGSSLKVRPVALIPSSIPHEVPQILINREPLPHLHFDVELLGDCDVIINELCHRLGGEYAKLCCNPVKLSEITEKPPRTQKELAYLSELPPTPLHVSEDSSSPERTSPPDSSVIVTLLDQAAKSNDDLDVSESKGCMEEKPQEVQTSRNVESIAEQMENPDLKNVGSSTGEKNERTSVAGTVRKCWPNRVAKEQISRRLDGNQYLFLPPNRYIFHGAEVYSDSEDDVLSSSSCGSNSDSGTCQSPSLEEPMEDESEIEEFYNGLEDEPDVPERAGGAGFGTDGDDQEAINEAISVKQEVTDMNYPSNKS

HEK cells = assay: Cytotoxicity testing on HEK cells
yeast Sir2 = system: yeast Sir2; design: method as in PMID 14534292; details: cited from earlier work
Sirt5 [6] = details: cited from earlier work

T4 sequence (Q8N6T7 13-308): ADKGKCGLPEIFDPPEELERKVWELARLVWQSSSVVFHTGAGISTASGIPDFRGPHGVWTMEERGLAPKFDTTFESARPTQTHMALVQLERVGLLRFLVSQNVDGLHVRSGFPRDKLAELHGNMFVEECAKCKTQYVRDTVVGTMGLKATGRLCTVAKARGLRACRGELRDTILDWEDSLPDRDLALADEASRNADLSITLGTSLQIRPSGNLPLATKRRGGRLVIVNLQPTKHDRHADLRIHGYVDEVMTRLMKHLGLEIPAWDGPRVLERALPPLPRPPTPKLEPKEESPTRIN

Structure (SMILES): CC(NC(=O)c1ccccc1/N=C/c1c(O)ccc2ccccc12)c1ccccc1 (centres unmarked) [sirtinol]
- weaker potency against Sirt1 than against Sirt2 (Sirt1 [2]): ~ 3 fold

Structure (SMILES): C[C@]12CC[C@@H]3c4ccc(O)cc4CC[C@H]3[C@@H]1CCC2OC(=O)CCc1ccccc1 (some centres unmarked) [CSC8, 3-hydroxyestra-1,3,5(10)-trien-17-yl 3-phenylpropanoate]
- Effect on the activity of Sirt2 (Sirt2 [3]; 100 μM compound, 0.1 mM FdL-2 peptide, 0.5 mM NAD+): inhibition (significant inhibitory effects (>25% loss of activity))
- inhibition at 100 µM (Sirt2 [3]; 100 μM compound, read-out: Sirt2 inhibition in the screen): ~80%
- IC50 (Sirt2 [3]; dose-response, substrate peptide concentration 100 μM, read-out: IC50 against Sirt2): 4.8 ± 0.5 µM
- Effect on the activity of Sirt3 (Sirt3): --- (no such effect)
- Effect on the activity of Sirt5 (Sirt5 [4]): --- (no such effect)
- Effect on the activity of Sirt6 (Sirt6): --- (no such effect)
- effect on the in vitro activity of Sirt1 (Sirt1 [5]): only a weak inhibitory effect
- cytotoxicity (HEK cells): very high cytotoxicity

Structure (SMILES): O=C1CCc2c(ccc3ccccc23)O1 [splitomicin]
- inhibition of yeast Sir2 (potency range) (yeast Sir2): micromolar inhibitors

Structure (SMILES): NC(=O)C1CCCc2c1[nH]c1ccc(Cl)cc21 (centres unmarked) [EX-527]
- potency against Sirt2 relative to Sirt1 (Sirt2 [1]): about two orders of magnitude lower potency
- effect against Sirt5 (Sirt5 [6]): no effect

Source: paper PMC3227451, “Structure-based development of novel sirtuin inhibitors” (Aging (Albany NY), 2011)
